Source: patent publication US20070128217A1 (priority 2003, published 2007)

How the values were obtained:
[1] = system: antibodies in sera from SARS patients (sera 1a, 1b, 2, 6, 37, 62, London, SARS-yellow, SARS-green); type: binding, human; set-up: Binding of serum 6 to linear peptides of protein X1 of SARS-CoV Urbani / Binding of serum 37 to linear peptides of protein X1 of SARS-CoV Urbani / Binding of serum 6 to looped/cyclic peptide (PEPSCAN-ELISA) / Binding of serum 37 to looped/cyclic peptide (PEPSCAN-ELISA) / Binding of serum 37 to looped/cyclic peptides of protein X1 of SARS-CoV Urbani / Binding of serum 6 to linear peptides of protein X2 / Binding of serum 37 to linear peptides of protein X2 / Binding of serum 37 to looped/cyclic peptides of protein X2 of SARS-CoV Urbani / Binding of serum 6 to linear peptides of protein M of SARS-CoV Urbani / Binding of serum 37 to linear peptides of protein M of SARS-CoV Urbani / Binding of serum 6 to looped/cyclic peptides of protein M of SARS-CoV Urbani / Binding of serum 37 to looped/cyclic peptides of protein M of SARS-CoV Urbani / Binding of serum 6 to linear peptides of protein X3 of SARS-CoV Urbani / Binding of serum 37 to linear peptides of protein X3 of SARS-CoV Urbani / Binding of serum 37 to looped/cyclic peptides of protein X3 of SARS-CoV Urbani / Binding of serum 6 to linear peptides of protein X4 of SARS-CoV Urbani / Binding of serum 37 to linear peptides of protein X4 of SARS-CoV Urbani / Binding of serum 37 to looped/cyclic peptides of protein X4 of SARS-CoV Urbani / Binding of serum 6 to linear peptides of protein X5 of SARS-CoV Urbani / Binding of serum 37 to linear peptides of protein X5 of SARS-CoV Urbani / Binding of serum 37 to looped/cyclic peptides of protein X5 of SARS-CoV Urbani / Binding of serum 6 to linear peptides of protein N of SARS-CoV Urbani / Binding of serum 37 to linear peptides of protein N of SARS-CoV Urbani / Binding of serum 6 to linear peptide (PEPSCAN-ELISA) / Binding of serum 1a to looped/cyclic peptides of protein N of SARS-CoV Urbani / Binding of serum 1b to looped/cyclic peptides of protein N of SARS-CoV Urbani / Binding of serum 2 to looped/cyclic peptides of protein N of SARS-CoV Urbani / Binding of serum 6 to looped/cyclic peptides of protein N of SARS-CoV Urbani / Binding of serum 37 to looped/cyclic peptides of protein N of SARS-CoV Urbani / Binding of serum 62 to looped/cyclic peptides of protein N of SARS-CoV Urbani / Binding of serum London to looped/cyclic peptides of protein N of SARS-CoV Urbani / Binding of serum SARS-green to looped/cyclic peptides of protein N of SARS-CoV Urbani: unit not given here
[2] = system: control sera (pooled serum of ten healthy LUMC hospital workers; commercial negative donor pooled serum from the Dutch bloodbank); type: binding, human; set-up: Binding of Control serum LUMC to linear peptides / Binding of Control serum Blood-bank to linear peptides / Binding of Control serum LUMC to looped peptides / Binding of Control Serum Blood-Bank to Looped peptides / Binding of Control serum LUMC to linear peptides of the protein M of SARS-CoV Urbani / Binding of Control serum Blood-bank to linear peptides of the protein M of SARS-CoV Urbani / Binding of Control serum LUMC to looped peptides of the protein M of SARS-CoV Urbani / Binding of Control Serum Blood-Bank to Looped peptides of the protein M of SARS-CoV Urbani: unit not given here
[3] = system: rabbit serum obtained by immunizing a rabbit with the SARS-CoV strain Frankfurt 1; type: binding; set-up: Binding of a rabbit serum to linear peptides / Binding of a rabbit serum to looped peptides / Rabbit serum linear peptides / Rabbit serum looped peptides / Binding of a rabbit serum to linear peptides of protein N of SARS-CoV Urbani (Rabbit serum linear peptides) / Binding of a rabbit serum to looped/cyclic peptides of protein N of SARS-CoV Urbani (Rabbit serum looped peptides): unit not given here
[4] = system: recombinant human anti-SARS-CoV antibody 03-018; type: binding; set-up: Binding of antibody 03-018 to linear peptides of the N protein of SARS-CoV Urbani / Binding of antibody 03-018 to looped/cyclic peptides of the N protein of SARS-CoV Urbani: unit not given here

| Sequence | Binding of serum 1a to linear peptides of protein N of SARS-CoV Urbani [1] | Binding of serum 1a to looped/cyclic peptides of protein N of SARS-CoV Urbani [1] | Binding of serum 1b to linear peptides of protein N of SARS-CoV Urbani [1] | Binding of serum 1b to looped/cyclic peptides of protein N of SARS-CoV Urbani [1] | Binding of serum 2 to linear peptides of protein N of SARS-CoV Urbani [1] | Binding of serum 2 to looped/cyclic peptides of protein N of SARS-CoV Urbani [1] | Binding of serum 6 to linear peptides of protein N of SARS-CoV Urbani [1] | Binding of serum 6 to looped/cyclic peptides of protein N of SARS-CoV Urbani [1] | Binding of serum 37 to linear peptides of protein N of SARS-CoV Urbani [1] | Binding of serum 37 to looped/cyclic peptides of protein N of SARS-CoV Urbani [1] | Binding of serum 62 to linear peptides of protein N of SARS-CoV Urbani [1] | Binding of serum 62 to looped/cyclic peptides of protein N of SARS-CoV Urbani [1] | Binding of serum London to linear peptides of protein N of SARS-CoV Urbani [1] | Binding of serum London to looped/cyclic peptides of protein N of SARS-CoV Urbani [1] | Binding of serum SARS-green to looped/cyclic peptides of protein N of SARS-CoV Urbani [1] | Binding of serum SARS-yellow to looped/cyclic peptides of protein N of SARS-CoV Urbani [1] | Binding of a rabbit serum to linear peptides of protein N of SARS-CoV Urbani (Rabbit serum linear peptides) [3] | Binding of a rabbit serum to looped/cyclic peptides of protein N of SARS-CoV Urbani (Rabbit serum looped peptides) [3] | Binding of antibody 03-018 to linear peptides of the N protein of SARS-CoV Urbani [4] | Binding of antibody 03-018 to looped/cyclic peptides of the N protein of SARS-CoV Urbani [4] | other results |
| --- | --- | --- | --- | --- | --- | --- | --- | --- | --- | --- | --- | --- | --- | --- | --- | --- | --- | --- | --- | --- | --- |
| LPAADMDDFSRQLQN | 0.2 | 0.3 | 0.2 | 0.2 | 0.4 | 0.5 | 0.3 | 0.4 | 0.7 | 0.6 | 0.6 | 0.4 | 0.5 | 0.3 | 0.5 | 0.6 | 0.2 | 0.2 | 0.1 | 0.2 | Binding of serum SARS-green to linear peptides of protein N of SARS-CoV Urbani [1]: 0.2; Binding of serum SARS-yellow to linear peptides of protein N of SARS-CoV Urbani [1]: 0.6; Control Serum Blood-Bank Looped peptides [2]: 0.4; Control serum Blood-bank linear peptides [2]: 0.7; Control serum LUMC linear peptides [2]: 0.7; Control serum LUMC looped peptides [2]: 0.4 |
| TGPEASLPYGANKEG | 0.3 | 0.3 | 0.2 | 0.2 | 0.3 | 0.5 | 0.3 | 0.4 | 0.7 | 0.6 | 0.9 | 0.5 | 0.7 | 0.6 | 0.7 | 0.4 | 0.1 | 0.5 | 0.1 | 0.2 | Binding of serum SARS-green to linear peptides of protein N of SARS-CoV Urbani [1]: 0.8; Binding of serum SARS-yellow to linear peptides of protein N of SARS-CoV Urbani [1]: 0.6; Binding of Control Serum Blood-Bank to Looped peptides [2]: 0.8; Binding of Control serum Blood-bank to linear peptides [2]: 0.9; Binding of Control serum LUMC to linear peptides [2]: 1.1; Binding of Control serum LUMC to looped peptides [2]: 0.6 |
| PTVTLLPAADMDDFS | 0.3 | 0.2 | 0.2 | 0.2 | 0.2 | 0.3 | 0.1 | 0.1 | 1.4 | 0.4 | 0.9 | 0.2 | 0.6 | 0.2 | 0.7 | 0.1 | 0.1 | 0.0 | 0.1 | 0.2 | Binding of serum SARS-green to linear peptides of protein N of SARS-CoV Urbani [1]: 1.9; Binding of serum SARS-yellow to linear peptides of protein N of SARS-CoV Urbani [1]: 0.7; Control Serum Blood-Bank Looped peptides [2]: 0.3; Control serum Blood-bank linear peptides [2]: 0.8; Control serum LUMC linear peptides [2]: 0.7; Control serum LUMC looped peptides [2]: 0.3 |
| GGETALALLLLDRLN |  | 0.4 |  | 0.3 |  | 0.5 |  | 0.2 |  | 0.7 |  | 0.7 |  | 0.5 | 0.3 | 0.7 | 0.1 | 0.6 | 0.1 | 0.2 | Binding of serum 1a to linear peptide (PEPSCAN-ELISA) [1]: 0.2; Binding of serum 1b to linear peptide (PEPSCAN-ELISA) [1]: 0.1; Binding of serum 2 to linear peptide (PEPSCAN-ELISA) [1]: 0.2; Binding of serum 6 to linear peptide (PEPSCAN-ELISA) [1]: 0.2; Binding of serum 37 to linear peptide (PEPSCAN-ELISA) [1]: 0.6; Binding of serum 62 to linear peptide (PEPSCAN-ELISA) [1]: 0.6; Binding of serum London to linear peptide (PEPSCAN-ELISA) [1]: 0.4; Binding of serum SARS-green to linear peptide (PEPSCAN-ELISA) [1]: 0.4; Binding of serum SARS-yellow to linear peptide (PEPSCAN-ELISA) [1]: 0.5; Binding of Control Serum Blood-Bank to Looped peptides [2]: 0.8; Binding of Control serum Blood-bank to linear peptides [2]: 0.7; Binding of Control serum LUMC to linear peptides [2]: 0.6; Binding of Control serum LUMC to looped peptides [2]: 0.8 |
